# Measurements reported in PubChem BioAssay (NCI).
#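 Test compounds were applied to cells in 96-well plates for 48 hours at 5 doses. TGI denotes the concentration required for complete inhibition of growth.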
# Legend:
# Experiment in all cases: NCI-60 cell line screen, 48 h
# MDA-MB-231 breast = test system: MDA-MB-231 breast
# COLO 205 colon = test system: COLO 205 colon
# TK-10 renal = test system: TK-10 renal
# NCI-H23 lung = test system: NCI-H23 lung
# MOLT-4 leukemia = test system: MOLT-4 leukemia
# A549 NSCLC = test system: A549 NSCLC
# OVCAR-3 ovarian = test system: OVCAR-3 ovarian
# DU-145 prostate = test system: DU-145 prostate
# SK-MEL-5 melanoma = test system: SK-MEL-5 melanoma
# NCI/ADR-RES ovarian = test system: NCI/ADR-RES ovarian
# CCRF-CEM leukemia = test system: CCRF-CEM leukemia
# SF-539 CNS = test system: SF-539 CNS
# UACC-257 melanoma = test system: UACC-257 melanoma
# RXF 393 renal = test system: RXF 393 renal
# A498 renal = test system: A498 renal
# UACC-62 melanoma = test system: UACC-62 melanoma
# RPMI-8226 leukemia = test system: RPMI-8226 leukemia
# MDA-MB-435 = test system: MDA-MB-435
# MCF7 breast = test system: MCF7 breast
# T-47D breast = test system: T-47D breast
# SR leukemia = test system: SR leukemia
# SF-268 CNS = test system: SF-268 CNS
# SF-295 CNS = test system: SF-295 CNS
# U251 CNS = test system: U251 CNS
# SW-620 colon = test system: SW-620 colon
# PC-3 prostate = test system: PC-3 prostate
# NCI-H226 lung = test system: NCI-H226 lung
# SNB-19 CNS = test system: SNB-19 CNS
# OVCAR-8 ovarian = test system: OVCAR-8 ovarian
# HOP-62 NSCLC = test system: HOP-62 NSCLC
# MDA-N = test system: MDA-N
# ACHN renal = test system: ACHN renal
# SK-MEL-2 melanoma = test system: SK-MEL-2 melanoma
# MALME-3M melanoma = test system: MALME-3M melanoma
# SN12C renal = test system: SN12C renal
# SK-OV-3 ovarian = test system: SK-OV-3 ovarian
# HT29 colon = test system: HT29 colon
# OVCAR-4 ovarian = test system: OVCAR-4 ovarian
# HCT-116 colon = test system: HCT-116 colon
# M14 melanoma = test system: M14 melanoma
# IGROV1 ovarian = test system: IGROV1 ovarian
# K-562 leukemia = test system: K-562 leukemia
# EKVX NSCLC = test system: EKVX NSCLC
# HOP-92 NSCLC = test system: HOP-92 NSCLC
# SK-MEL-28 melanoma = test system: SK-MEL-28 melanoma
# LOX IMVI melanoma = test system: LOX IMVI melanoma
# OVCAR-5 ovarian = test system: OVCAR-5 ovarian
# BT-549 breast = test system: BT-549 breast
# CAKI-1 renal = test system: CAKI-1 renal
# HS 578T breast = test system: HS 578T breast
# UO-31 renal = test system: UO-31 renal
# HCC-2998 colon = test system: HCC-2998 colon
# NCI-H460 lung = test system: NCI-H460 lung
# HCT-15 colon = test system: HCT-15 colon
# 786-0 renal = test system: 786-0 renal
# HL-60(TB) leukemia = test system: HL-60(TB) leukemia
# KM12 colon = test system: KM12 colon
structure (smiles),measurement,setting,value
C/C=C1/CN2CC[C@@H]3c4ccccc4N4[C@H](C(=O)OC)[C@H]1C[C@H]2[C@]34/C=C/C1=COC[C@@H]2[C@H]1C[C@H]1c3c(c4ccccc4n3C)C[C@@H]2N1C,TGI,MDA-MB-231 breast,8.93 µM
same,TGI,COLO 205 colon,6.62 µM
same,TGI,TK-10 renal,7.5 µM
same,TGI,NCI-H23 lung,8.43 µM
same,TGI,MOLT-4 leukemia,13.4 µM
same,TGI,A549 NSCLC,8.28 µM
same,TGI,OVCAR-3 ovarian,9.66 µM
same,TGI,DU-145 prostate,11.9 µM
same,TGI,SK-MEL-5 melanoma,7.48 µM
same,TGI,NCI/ADR-RES ovarian,6.69 µM
same,TGI,CCRF-CEM leukemia,9.49 µM
same,TGI,SF-539 CNS,7.61 µM
same,TGI,UACC-257 melanoma,8.51 µM
same,TGI,RXF 393 renal,7.9 µM
same,TGI,A498 renal,10 µM
same,TGI,UACC-62 melanoma,9.29 µM
same,TGI,RPMI-8226 leukemia,8.33 µM
same,TGI,MDA-MB-435,7.18 µM
same,TGI,MCF7 breast,8.67 µM
same,TGI,T-47D breast,8.68 µM
same,TGI,SR leukemia,19.3 µM
same,TGI,SF-268 CNS,7.16 µM
same,TGI,SF-295 CNS,8.18 µM
same,TGI,U251 CNS,7.65 µM
same,TGI,SW-620 colon,7.6 µM
same,TGI,PC-3 prostate,6.09 µM
same,TGI,NCI-H226 lung,9.16 µM
same,TGI,SNB-19 CNS,7.39 µM
same,TGI,OVCAR-8 ovarian,8.04 µM
same,TGI,HOP-62 NSCLC,7.29 µM
same,TGI,MDA-N,5.41 µM
same,TGI,ACHN renal,7.43 µM
same,TGI,SK-MEL-2 melanoma,8.14 µM
same,TGI,MALME-3M melanoma,8.5 µM
same,TGI,SN12C renal,9.17 µM
same,TGI,SK-OV-3 ovarian,8.06 µM
same,TGI,HT29 colon,5.92 µM
same,TGI,OVCAR-4 ovarian,6.88 µM
same,TGI,HCT-116 colon,7.61 µM
same,TGI,M14 melanoma,7.9 µM
same,TGI,IGROV1 ovarian,8.81 µM
same,TGI,K-562 leukemia,25 µM
same,TGI,EKVX NSCLC,6.17 µM
same,TGI,HOP-92 NSCLC,9 µM
same,TGI,SK-MEL-28 melanoma,8.88 µM
same,TGI,LOX IMVI melanoma,8.74 µM
same,TGI,OVCAR-5 ovarian,7.99 µM
same,TGI,BT-549 breast,8.05 µM
same,TGI,CAKI-1 renal,7.89 µM
same,TGI,HS 578T breast,8.93 µM
same,TGI,UO-31 renal,7.98 µM
same,TGI,HCC-2998 colon,1.31 µM
same,TGI,NCI-H460 lung,7.41 µM
same,TGI,HCT-15 colon,7.83 µM
Cc1nnc2nc(-c3ccc(Cl)cc3Cl)cc(-c3ccc(Cl)cc3)n12,TGI,MDA-MB-231 breast,> 100 µM
same,TGI,COLO 205 colon,49.6 µM
same,TGI,TK-10 renal,> 100 µM
same,TGI,NCI-H23 lung,> 100 µM
same,TGI,786-0 renal,> 100 µM
same,TGI,MOLT-4 leukemia,96 µM
same,TGI,A549 NSCLC,> 100 µM
same,TGI,OVCAR-3 ovarian,> 100 µM
same,TGI,DU-145 prostate,> 100 µM
same,TGI,SK-MEL-5 melanoma,> 100 µM
same,TGI,NCI/ADR-RES ovarian,> 100 µM
same,TGI,CCRF-CEM leukemia,> 100 µM
same,TGI,SF-539 CNS,> 100 µM
same,TGI,UACC-257 melanoma,> 100 µM
same,TGI,UACC-62 melanoma,> 100 µM
same,TGI,RPMI-8226 leukemia,> 100 µM
same,TGI,MDA-MB-435,> 100 µM
same,TGI,MCF7 breast,> 100 µM
same,TGI,T-47D breast,> 100 µM
same,TGI,SR leukemia,> 100 µM
same,TGI,SF-268 CNS,> 100 µM
same,TGI,SF-295 CNS,> 100 µM
same,TGI,U251 CNS,> 100 µM
same,TGI,SW-620 colon,> 100 µM
same,TGI,PC-3 prostate,> 100 µM
same,TGI,NCI-H226 lung,> 100 µM
same,TGI,SNB-19 CNS,> 100 µM
same,TGI,OVCAR-8 ovarian,> 100 µM
same,TGI,HL-60(TB) leukemia,> 100 µM
same,TGI,HOP-62 NSCLC,> 100 µM
same,TGI,MDA-N,> 100 µM
same,TGI,ACHN renal,> 100 µM
same,TGI,MALME-3M melanoma,> 100 µM
same,TGI,SN12C renal,> 100 µM
same,TGI,SK-OV-3 ovarian,> 100 µM
same,TGI,HT29 colon,42.3 µM
same,TGI,OVCAR-4 ovarian,39.6 µM
same,TGI,HCT-116 colon,> 100 µM
same,TGI,KM12 colon,> 100 µM
same,TGI,M14 melanoma,> 100 µM
same,TGI,K-562 leukemia,> 100 µM
same,TGI,HOP-92 NSCLC,37.7 µM
same,TGI,SK-MEL-28 melanoma,40.8 µM
same,TGI,LOX IMVI melanoma,> 100 µM
same,TGI,OVCAR-5 ovarian,> 100 µM
same,TGI,BT-549 breast,> 100 µM
same,TGI,CAKI-1 renal,> 100 µM
same,TGI,HS 578T breast,> 100 µM
same,TGI,UO-31 renal,> 100 µM
same,TGI,NCI-H460 lung,> 100 µM
same,TGI,HCT-15 colon,> 100 µM
